# Data as given in ChEMBL document CHEMBL1129098, “Structure-activity dependency of new bacterial tryptophanyl tRNA synthetase inhibitors” (Bioorg Med Chem Lett, 1996).
# Key:
# Staphylococcus aureus = assay: Antibacterial activity against Staphylococcus aureus; type: functional
# [1] = Inhibition of tryptophanyl tRNA synthetase isolated from Staphylococcus aureus
Structure (SMILES),MIC (Staphylococcus aureus),I50 [1]
CNC1=NC(=O)[C@H]([C@H](CC(=O)OC(C)(C)C)c2c[nH]c3ccccc23)O1,> 512 µg/mL,> 100000 ng/mL
CNC1=NC(=O)[C@H](C(C)(C)c2c[nH]c3ccccc23)O1,32 µg/mL,580 ng/mL
CNC1=NC(=O)[C@H]([C@H](CN)c2c[nH]c3ccccc23)O1,> 512 µg/mL,> 100000 ng/mL
CNC1=NC(=O)[C@H]([C@@H](O)c2c[nH]c3ccccc23)O1,> 64 µg/mL,44000 ng/mL
CNC1=NC(=O)[C@H]([C@@H](C)c2c[nH]c3ccccc23)O1,8 µg/mL,500 ng/mL
CNC1=NC(=O)[C@H]([C@@H](CC(=O)OC(C)(C)C)c2c[nH]c3ccccc23)O1,> 512 µg/mL,> 100000 ng/mL
CC[C@@H](c1c[nH]c2ccccc12)[C@@H]1OC(NC)=NC1=O,> 512 µg/mL,22000 ng/mL
CNC1=NC(=O)[C@H]([C@H](C[N+](=O)[O-])c2c[nH]c3ccccc23)O1,64 µg/mL,2300 ng/mL
CC[C@H](c1c[nH]c2ccccc12)[C@@H]1OC(NC)=NC1=O,64 µg/mL,250 ng/mL
CNC1=NC(=O)[C@](C)([C@H](C)c2c[nH]c3ccccc23)O1,64 µg/mL,1200 ng/mL
CNC1=NC(=O)[C@H]([C@@H](CC(=O)O)c2c[nH]c3ccccc23)O1,> 512 µg/mL,> 100000 ng/mL
CNC1=NC(=O)[C@H]([C@H](CC(=O)O)c2c[nH]c3ccccc23)O1,> 512 µg/mL,> 100000 ng/mL
CNC1=NC(=O)[C@H]([C@](C)(O)c2c[nH]c3ccccc23)O1,> 64 µg/mL,> 100000 ng/mL
CNC1=NC(=O)[C@H]([C@@](C)(O)c2c[nH]c3ccccc23)O1,0.25 µg/mL,46 ng/mL
CNC1=NC(=O)[C@H]([C@H](/C=N\O)c2c[nH]c3ccccc23)O1,> 512 µg/mL,> 100000 ng/mL
CNC1=NC(=O)[C@](C)([C@@H](C)c2c[nH]c3ccccc23)O1,> 512 µg/mL,> 100000 ng/mL
CNC1=NC(=O)[C@H]([C@@H](C[N+](=O)[O-])c2c[nH]c3ccccc23)O1,> 64 µg/mL,> 100000 ng/mL
CNC1=NC(=O)[C@H](Cc2c[nH]c3ccccc23)O1,64 µg/mL,1550 ng/mL
CNC1=NC(=O)[C@H]([C@H](O)c2c[nH]c3ccccc23)O1,> 64 µg/mL,4000 ng/mL
CNC1=NC(=O)[C@H]([C@H](C)c2c[nH]c3ccccc23)O1 [INDOMYCIN],0.125 µg/mL,16 ng/mL
